Broadly, the IC50 is the concentration that gives 50% inhibition. Low values mean greater potency, high ones weaker potency.

Each structure is given as a SMILES string. Where only a bound is given, the exact number is not on record here.

In this assay the target is T1, human FOXO1 (constitutively active form Thr24Ala, Ser256Ala, Ser319Ala) (Homo sapiens, UniProt Q12778, S256A/S319A/T24A).
T1 construct: expressed in transfected cells; host or cells: HEK293 cells transfected with pcDNA3.1 plasmid
T1 sequence (Q12778 whole entry T24A/S256A/S319A): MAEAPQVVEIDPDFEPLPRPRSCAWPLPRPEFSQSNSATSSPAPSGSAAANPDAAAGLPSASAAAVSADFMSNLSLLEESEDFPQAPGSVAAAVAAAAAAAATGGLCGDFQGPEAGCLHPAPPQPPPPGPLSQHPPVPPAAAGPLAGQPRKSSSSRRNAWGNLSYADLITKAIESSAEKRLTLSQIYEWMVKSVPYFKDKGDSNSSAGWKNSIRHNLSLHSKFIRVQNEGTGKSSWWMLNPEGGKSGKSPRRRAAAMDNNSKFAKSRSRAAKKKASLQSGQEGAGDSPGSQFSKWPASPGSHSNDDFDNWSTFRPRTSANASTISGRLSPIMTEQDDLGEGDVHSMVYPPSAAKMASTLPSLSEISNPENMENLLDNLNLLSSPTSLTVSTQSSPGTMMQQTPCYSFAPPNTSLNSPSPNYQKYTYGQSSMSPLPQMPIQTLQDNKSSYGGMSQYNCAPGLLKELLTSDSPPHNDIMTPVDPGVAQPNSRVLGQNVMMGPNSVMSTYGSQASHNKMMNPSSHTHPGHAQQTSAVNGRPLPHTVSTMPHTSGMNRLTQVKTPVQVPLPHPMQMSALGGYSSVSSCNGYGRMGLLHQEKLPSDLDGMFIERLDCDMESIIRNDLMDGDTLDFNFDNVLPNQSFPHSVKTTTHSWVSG
As to the kind of experiment: FOXO1 inhibitor activity assay: cell-based transcriptional (luciferase) reporter assay in HEK293 cells. The following applies: HEK293 cells transfected with insulin response element firefly luciferase reporter, FOXO1 and Renilla luciferase; 10-point dose response 50 μM to 2.5 nM; 24 hours. The method, then:
The inhibitory activities of compounds on FOXO1 were determined by a cell-based transcriptional reporter assay. HEK293 cells were plated onto either 384-well poly-D-lysine coated plates (at 7500 cells per well) or 96-well plates (at 20000 cells per well) in low glucose Eagle's Minimum Essential Medium (EMEM) containing 1% fetal bovine serum, and incubated overnight at 37° C. and 5% CO2. […] Duplicate wells were included for each treatment condition. Cells were incubated for 24 hours at 37° C. and 5% CO2. Luciferase activities in each well were measured using Dual-Glog Luciferase Assay System (Promega) according to manufacturer's protocol and an Envision plate reader suitable for luminescence detection. Firefly luciferase activity was divided by Renilla luciferase activity to calculate a ratio for each well. The ratio in wells containing cells transfected with all 3 plasmids listed above and receiving only DMSO without compound addition was set to 100%. The ratio in wells containing cells transfected with plasmid (1), plasmid (3), and pcDNA3.1 containing the open reading frame of red fluorescent protein (instead of human FOXO1) and treated with DMSO was set to 0%. The ratio in each well receiving compound treatment was normalized and expressed as a percentage. Data were fit by 4-parameter logistic regression to determine IC50 and maximal inhibition values. Each compound was tested in a minimum of 2 independent experiments.
A general note: A reporter such as luciferase makes a cellular process visible.
With `C[C@H]1CN(c2ccc(C(=O)Nc3cc(-c4nc5ccccc5[nH]4)n(C)n3)cn2)CCN1` [Compound A-245, N-[5-(1H-benzimidazol-2-yl)-1-methyl-pyrazol-3-yl]-6-[(3S)-3-methylpiperazin-1-yl]pyridine-3-carboxamide], the IC50 was below 100 nM.
As for `COCCN1CCN(c2ccc(C(=O)Nc3cc(-c4nc5cc(OC)cc(F)c5[nH]4)n(C)n3)cn2)CC1` [Compound A-190, N-[5-(7-fluoro-5-methoxy-1H-benzimidazol-2-yl)-1-methyl-pyrazol-3-yl]-6-[4-(2-methoxyethyl)piperazin-1-yl]pyridine-3-carboxamide], the IC50 is below 100 nM.
Compound `O=C(O)COc1ccc(C(=O)Nc2cc(-c3nc4ccccc4[nH]3)[nH]n2)cc1Cl` [Compound A-72, 2-[4-[[5-(1H-benzimidazol-2-yl)-1H-pyrazol-3-yl]carbamoyl]-2-chloro-phenoxy]acetic acid] had an IC50 above 1000 nM.
Turning to `CCOC(=O)COc1ccc(C(=O)Nc2cc(-c3nc4ccccc4[nH]3)[nH]n2)cc1Cl` [Compound A-57, ethyl 2-[4-[[5-(1H-benzimidazol-2-yl)-1H-pyrazol-3-yl]carbamoyl]-2-chloro-phenoxy]acetate], the IC50 is above 1000 nM.
`O=C(Nc1cc(-c2nc3ccccc3[nH]2)[nH]n1)c1ccc(N2CC[C@H](O)C2)nc1` [Compound A-54, N-[5-(1H-benzimidazol-2-yl)-1H-pyrazol-3-yl]-6-[(3S)-3-hydroxy-pyrrolidin-1-yl]pyridine-3-carboxamide] gave an IC50 of 300 to 1000 nM.
Next, `Cn1nc(NC(=O)c2ccc(N3CCN(CCO)CC3)nc2)cc1-c1nc2cccc(F)c2[nH]1` [Compound A-158]: 100 to 300 nM; `C[C@H]1CN(c2ccc(C(=O)Nc3cc(-c4nc5ccccc5[nH]4)n(C)n3)cn2)C[C@H](C)N1` [Compound A-288, N-[5-(1H-benzimidazol-2-yl)-1-methyl-pyrazol-3-yl]-6-[(3S,5S)-3,5-dimethylpiperazin-1-yl]pyridine-3-carboxamide]: 100 to 300 nM; `Cn1nc(NC(=O)c2ccc(OCCO)c(Cl)c2)cc1-c1nc2cccc(F)c2[nH]1` [Compound A-165, 3-chloro-N-[5-(7-fluoro-1H-benzimidazol-2-yl)-1-methyl-pyrazol-3-yl]-4-(2-hydroxyethoxy)benzamide]: below 100 nM.
Next, `O=C(Nc1cc(-c2nc3cc(Cl)ccc3[nH]2)[nH]n1)c1ccc(OCCO)c(Cl)c1` [Compound A-121, 3-chloro-N-[5-(5-chloro-1H-benzimidazol-2-yl)-1H-pyrazol-3-yl]-4-(2-hydroxyethoxy)benzamide]: 100 to 300 nM.
The value for `O=C(Nc1cc(-c2nc3ccccc3[nH]2)[nH]n1)c1ccc(OCCO)c(Cl)c1` [Compound A-50, N-[5-(1H-benzimidazol-2-yl)-1H-pyrazol-3-yl]-3-chloro-4-(2-hydroxy-ethoxy)benzamide] was below 100 nM; that for `O=C(Nc1cc(-c2nc3ccccc3[nH]2)[nH]n1)c1ccc(N2CCC(O)CC2)nc1` [Compound A-42, N-[5-(1H-benzimidazol-2-yl)-1H-pyrazol-3-yl]-6-(4-hydroxy-1-piperidyl)pyridine-3-carboxamide] was 100 to 300 nM.
As to `Cn1nc(NC(=O)c2ccc(N3CCO[C@H](CO)C3)nc2)cc1-c1nc2ccccc2[nH]1` [Compound A-251, N-[5-(1H-benzimidazol-2-yl)-1-methyl-pyrazol-3-yl]-6-[(2S)-2-(hydroxymethyl)morpholin-4-yl]pyridine-3-carboxamide], the IC50 was below 100 nM.
The value for `C[C@H]1COCCN1c1ccc(C(=O)Nc2cc(-c3nc4ccccc4[nH]3)n(C)n2)cn1` [Compound A-230, N-[5-(1H-benzimidazol-2-yl)-1-methyl-pyrazol-3-yl] -6-[(3S)-3-methylmorpholin-4-yl]pyridine-3-carboxamide] was 100 to 300 nM.
Next, `Cn1nc(NC(=O)c2cnc(N3CCC(N4CCOCC4)CC3)cn2)cc1-c1nc2ccccc2[nH]1` [Compound A-205, N-[5-(1H-benzimidazol-2-yl)-1-methyl-pyrazol-3-yl]-5-(4-morpholino-1-piperidyl)pyrazine-2-carboxamide]: 300 to 1000 nM; `Cn1nc(NC(=O)c2ccc(N3CCNC4(CC4)C3)nc2)cc1-c1nc2ccccc2[nH]1` [Compound A-281, N-[5-(1H-benzimidazol-2-yl)-1-methyl-pyrazol-3-yl]-6-(4,7-diazaspiro[2.5]octan-7-yl)pyridine-3-carboxamide]: below 100 nM; `Cn1nc(NC(=O)c2ccc(N3CCN(CCOC4CC4)CC3)nc2)cc1-c1nc2ccccc2[nH]1` [Compound A-266, N-[5-(1H-benzimidazol-2-yl)-1-methyl-pyrazol-3-yl]-6-[4-[2-(cyclo-propoxy)ethyl]piperazin-1-yl]pyridine-3-carboxamide]: below 100 nM.
The value for `CCOC(=O)[C@@H]1CCCN1c1ccc(C(=O)Nc2cc(-c3nc4cc(F)ccc4[nH]3)n(C)n2)cn1` [Compound A-145, ethyl (25)-1-[5-[[5-(5-fluoro-1H-benzimidazol-2-yl)-1-methyl-pyrazol-3-yl]carbamoyl]-2-pyridyl]pyrrolidine-2-carboxylate] was above 1000 nM.
In turn, `Cc1nc(N2CCOC(CO)C2)ccc1C(=O)Nc1cc(-c2nc3ccccc3[nH]2)n(C)n1` (stereo not shown) [Compound A-262, N-[5-(1H-benzimidazol-2-yl)-1-methyl-pyrazol-3-yl]-6-[2-(hydroxy-methyl)morpholin-4-yl]-2-methyl-pyridine-3-carboxamide] displayed an IC50 of 100 to 300 nM.
The value for `Cc1ccc2[nH]c(-c3cc(NC(=O)c4ccc(N5CCC(CO)CC5)nc4)n[nH]3)nc2c1` [Compound A-98, 6-[4-(hydroxymethyl)-1-piperidyl]-N-[5-(5-methyl-1H-benzimidazol-2-yl)-1H-pyrazol-3-yl]pyridine-3-carboxamide] was below 100 nM; that for `O=C(Nc1cc(-c2nc3ccccc3[nH]2)[nH]n1)c1ccc(N2CCS(=O)(=O)CC2)nc1` [Compound A-49, N-[5-(1H-benzimidazol-2-yl)-1H-pyrazol-3-yl]-6-(1,1-dioxo-1,4-thiazinan-4-yl)pyridine-3-carboxamide] was 300 to 1000 nM.
Next, `Cn1nc(NC(=O)c2ccc(N3CCNCC3)nc2)cc1-c1nc2ccccc2[nH]1` [Compound A-216, N-[5-(1H-benzimidazol-2-yl)-1-methyl-pyrazol-3-yl]-6-piperazin-1-yl-pyridine-3-carboxamide]: 100 to 300 nM.
Next, `N#Cc1cc(C(=O)Nc2cc(-c3nc4ccccc4[nH]3)[nH]n2)ccc1OCCO` [Compound A-144, N-[5-(1H-benzimidazol-2-yl)-1H-pyrazol-3-yl]-3-cyano-4-(2-hydroxy-ethoxy)benzamide]: above 1000 nM.
The compound `COc1ccc(C(=O)Nc2cc(-c3cn4ccccc4n3)[nH]n2)cc1Cl` [Compound A-112, 3-chloro-N-(5-imidazo[1,2-a]pyridin-2-yl-1H-pyrazol-3-yl)-4-methoxy-benzamide] had an IC50 of 300 to 1000 nM.
The value for `CN1CCN(c2ccc(C(=O)Nc3cc(-c4nc5ccccc5[nH]4)[nH]n3)cn2)CC1` [Compound A-21, N-[5-(1H-benzimidazol-2-yl)-1H-pyrazol-3-yl]-6-(4-methyl-piperazin-1-yl)pyridine-3-carboxamide] was below 100 nM.
In turn, `O=C(Nc1cc(-c2nc3ccccc3[nH]2)[nH]n1)c1ccc(N2CCNCC2)nc1` [Compound A-218, N-[5-(1H-benzimidazol-2-yl)-1H-pyrazol-3-yl]-6-piperazin-1-yl-pyridine-3-carboxamide] returned an IC50 of 100 to 300 nM.
Next, `O=C(Nc1cc(-c2nc3ccccc3[nH]2)[nH]n1)c1ccc(N2CCCC(CO)C2)nc1` (stereo not shown) [Compound A-68, N-[5-(1H-benzimidazol-2-yl)-1H-pyrazol-3-yl]-6-[3-(hydroxymethyl)-1-piperidyl]pyridine-3-carboxamide]: below 100 nM.
Next, `COCC(=O)N1CCN(c2ccc(C(=O)Nc3cc(-c4nc5ccccc5[nH]4)n(C)n3)cn2)CC1` [Compound A-271]: 100 to 300 nM; `COCCSc1ccc(C(=O)Nc2cc(-c3nc4ccccc4[nH]3)[nH]n2)cc1Cl` [Compound A-93, N-[5-(1H-benzimidazol-2-yl)-1H-pyrazol-3-yl]-3-chloro-4-(2-methoxyethylsulfanyl)benzamide]: below 100 nM; `O=C(Nc1cc(-c2nc3cc(OC(F)(F)F)ccc3[nH]2)[nH]n1)c1ccc(OCCO)c(Cl)c1` [Compound A-116, 3-chloro-4-(2-hydroxyethoxy)-N-[5-[5-(trifluoromethoxy)-1H-benzimidazol-2-yl]-1H-pyrazol-3-yl]benzamide]: 100 to 300 nM.
The value for `CCOC(=O)[C@@H]1CCCN1c1ccc(C(=O)Nc2cc(-c3nc4cccc(F)c4[nH]3)n(C)n2)cn1` [Compound A-147, ethyl (2S)-1-[5-[[5-(4-fluoro-1H-benzimidazol-2-yl)-1-methyl-pyrazol-3-yl]carbamoyl]-2-pyridyl]pyrrolidine-2-carboxylate] was above 1000 nM; that for `O=C(Nc1cc(-c2nc3ccccc3[nH]2)[nH]n1)c1ccc(N2CCC3(CCCO3)CC2)nc1` [Compound A-44, N-[5-(1H-benzimidazol-2-yl)-1H-pyrazol-3-yl]-6-(1-oxa-8-azaspiro[4.5]decan-8-yl)pyridine-3-carboxamide] was below 100 nM.

Source of the values: US20230416228A1 (Forkhead Biotherapeutics, Inc., priority 2020, published 2023).
